Data taken from patent US6878751B1, “Administration of resveratrol to treat inflammatory respiratory disorders” (Imperial College of Science Technology and Medicine, priority 2000, dated 2005).

Columns and labels:
[1] = test system: CRE dependent transcription; experiment: CRE luciferase reporter in stably transfected A549 cells; assay type: cell-based, human
Experimental: (§1) The expression of inflammatory genes was then evaluated in cells transformed with luciferase reporter genes containing sites for transcription factors (Tf, Tfs). The A549 cells were stably transfected by routine methods with luciferase reporters containing the transcription factors NF-κB, TRE (AP-1, TPA responsive element) and CRE (cAMP responsive element). Luciferase activity of cell lysates resuspended in […] cell lysis buffer mixed (40 mml resuspended lysate: 40 mml assay reagent) was measured using the Luciferase Assay System (Promega), with emitted light measured by a Turner DesignsTD-20/20 luminometer (Steptech Instruments Ltd., Stevenage, U.K.)

[2] = test system: NF-κB dependent transcription; experiment: NF-κB luciferase reporter in stably transfected A549 cells; assay type: cell-based, human
Experimental: as §1

C[C@@H]1C[C@H]2[C@@H]3CCC4=CC(=O)C=C[C@]4(C)[C@@]3(F)[C@@H](O)C[C@]2(C)[C@@]1(O)C(=O)CO [Dexamethasone, dexamethasone, reference compound]
extent of inhibition of CRE dependent transcription [1]: 62%
EC50 ([1]; Homo sapiens, read-out: EC50 for inhibition of CRE dependent transcription): 3.4 ± 3 µM
extent of inhibition of NF-κB dependent transcription [2]: 41%
EC50 ([2]; Homo sapiens, read-out: EC50 for inhibition of NF-κB dependent transcription): 16 ± 12 µM
